The test system of one series is IGF1. The series can be described thus: Serum levels of IGF1 in rosiglitazone-treated patients affected by osteoporosis.
Series [1] is described as follows: Body weight (BW) of the patients.
For the next series, the system named is osteocalcine. The experiment in a line: Serum levels of osteocalcine in rosiglitazone-treated patients affected by osteoporosis.
Where [2] appears, read: T1 versus T0, a month of wash-out, 6 patients.
Setting [3] is: after 1-month rosiglitazone wash-out (T1), patients 1-6 individually and mean.
The mark [4] stands for this setting: after treatment with rosiglitazone 8 mg/day orally for 12 months (T0), patients 1-6 individually and mean.

Values joined by “and” are separate entries in the source; they are usually repeats but may differ in a detail not shown here. Equal values may be shown once.

For `CN(CCOc1ccc(CC2SC(=O)NC2=O)cc1)c1ccccn1` (stereo not drawn) [rosiglitazone], in the series on IGF1 (setting [2]), the “Change of serum IGF1 after wash-out” value is recorded as “lightly incremented even if not significantly”. Moreover, the “Serum level of IGF1, T1” value with IGF1 (setting [3]) is 310000 pg/mL and 375000 pg/mL and 300000 pg/mL and 380000 pg/mL and 280000 pg/mL and 265000 pg/mL. Moreover, the “Serum level of IGF1, T0” value in the series with IGF1 (setting [4]) is 300 ng/ml and 235 ng/ml and 260 ng/ml (2×) and 330 ng/ml and 270 ng/ml. Moreover, the “Change of body weight (BW) after wash-out” value in series [1] (setting [2]) is listed as “didn't demonstrate variations”. Moreover, the “BW Body weight, T1” value in series [1] (setting [3]) was 98.9 and 102 and 109 and 94.6 and 96.8 and 97. Also, in series [1] (setting [4]), the “BW Body weight, T0” value was 99 and 102.5 and 108.9 and 94.5 and 97.3 and 97.2. Moreover, under setting [2], the “Change of Total Body Water after wash-out” value was “didn't demonstrate variations”. Moreover, the “TBW Total Body Water, T1” value under setting [3] is 50 and 50.2 and 53.5 and 48 and 50.8 and 49.9. For the same molecule, the “TBW Total Body Water, T0” value under setting [4] was 50.1 and 50.3 and 53.6 and 48 and 50.9 and 49.8. Besides, the “Change of serum osteocalcine after wash-out” value with osteocalcine (setting [2]) is “lightly incremented even if not significantly”. Moreover, the “Serum level of osteocalcine, T1” value in the series on osteocalcine (setting [3]) was 0.0028 pg/mL and 0.0029 pg/mL and 0.003 pg/mL and 0.0027 pg/mL and 0.0026 pg/mL. Also, in the series on osteocalcine (setting [4]), the “Serum level of osteocalcine, T0” value was 0.0027 pg/mL and 0.003 pg/mL and 0.0031 pg/mL and 0.0023 pg/mL and 0.0022 pg/mL and 0.0026 pg/mL.

The record behind these values is patent US20100305204A1, “COMPOSITION USEFUL FOR THE PREVENTION OF ADVERSE EFFECT DUE TO THE USE OF PPAR-GAMMA AGONISTS” (SIGMA-TAU INDUSTRIE FARMACEUTICHE RIUNITE S.P.A., priority 2007, published 2010).
